“And” between values parts separate entries of the source, which are not always exact repeats. Equal values may be shown once.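 How tested: cells in 96-well plates exposed to compound for 48 hours at five concentrations. GI50 = concentration required for 50% inhibition of growth. TGI denotes the concentration required for complete inhibition of growth.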

The text below walks through data of PubChem BioAssay (NCI).

Test systems include TK-10 renal; HS 578T breast; LOX IMVI melanoma; SNB-19 CNS; A498 renal; EKVX NSCLC; HOP-62 NSCLC; M14 melanoma; RXF 393 renal; SN12C renal.
Holding throughout (test): NCI anticancer screen, dose series, 48 h

`CCCCCCN1C(=O)/C(=c2\sc3n(c2=O)C2C(NN=3)N(CC)C(=O)N2CC)c2ccccc21` (centres undefined): the GI50 in the assay with TK-10 renal is 1.72 µM; with HS 578T breast it was 1.12 µM; in the assay with LOX IMVI melanoma it was 1.53 µM; in the assay with SNB-19 CNS, 3.03 µM; in the assay with A498 renal, 0.706 µM; with EKVX NSCLC, 2.84 µM. Moreover, the GI50 in the assay on HOP-62 NSCLC is 1.71 µM; in the assay with M14 melanoma, 3.24 µM; in the assay with RXF 393 renal, 1.2 µM; in the assay with SN12C renal, 2.74 µM. For the same compound, the TGI is above 50 µM with TK-10 renal; 3.28 µM with HS 578T breast; above 50 µM in the assay on LOX IMVI melanoma; above 50 µM in the assay with SNB-19 CNS; 2.37 µM with A498 renal; above 50 µM in the assay with EKVX NSCLC. Moreover, the TGI in the assay with HOP-62 NSCLC is above 50 µM; in the assay on M14 melanoma it was above 50 µM; in the assay on RXF 393 renal it was 3.98 µM; in the assay on SN12C renal, above 50 µM.
On to `Cc1ccc(NC(=O)c2ccnc(C(F)(F)F)c2)cc1-c1cc(OCCO)nc(N2CCOCC2)c1`, for which the GI50 with TK-10 renal is 6.66 µM; in the assay with HS 578T breast, 2.59 µM; in the assay with LOX IMVI melanoma it was 0.147 µM; with SNB-19 CNS, 3.64 µM; in the assay on A498 renal, 1.06 µM; in the assay on EKVX NSCLC it was 2.44 µM. Also, the GI50 with HOP-62 NSCLC is 1.28 µM; in the assay with M14 melanoma, 0.63 µM; in the assay on RXF 393 renal it was 1.94 µM; in the assay on SN12C renal, 3.31 µM. The TGI in the assay with TK-10 renal is above 100 µM; in the assay with HS 578T breast it was 23.7 µM; in the assay on LOX IMVI melanoma, 4.26 µM; with SNB-19 CNS, 19.2 µM; with A498 renal, 3.74 µM; in the assay with EKVX NSCLC it was 29.5 µM. Besides, the TGI in the assay with HOP-62 NSCLC worked out at 34.5 µM; with M14 melanoma, 5.25 µM; in the assay on RXF 393 renal it was 10.4 µM; in the assay with SN12C renal it was 28.6 µM.
On to `COC(=O)Nc1ccc2ccc3c(NC(=O)OC)ccc4ccc1c2c43` (tested in a mixture with another compound), for which the GI50 with TK-10 renal is 16.9 µM; in the assay with HS 578T breast, 9.01 µM; in the assay on LOX IMVI melanoma, 6.67 µM; with SNB-19 CNS, 13.1 µM; in the assay on A498 renal, 8.26 µM; in the assay with EKVX NSCLC it was 5.55 µM. Moreover, the GI50 with HOP-62 NSCLC is 7.91 µM; with M14 melanoma, 3.93 µM; with RXF 393 renal, 7.3 µM; in the assay on SN12C renal it was 18.9 µM. Besides, the TGI was above 50 µM in the assay with TK-10 renal; 40.4 µM in the assay with HS 578T breast; 19 µM in the assay on LOX IMVI melanoma; above 50 µM in the assay with SNB-19 CNS; above 50 µM with A498 renal; above 50 µM in the assay with EKVX NSCLC. For the same compound, the TGI was 25.4 µM with HOP-62 NSCLC, above 50 µM in the assay with M14 melanoma, 20.5 µM in the assay with RXF 393 renal and above 50 µM in the assay with SN12C renal.
Turning to `Clc1nc(Cl)c2ncn(C/C=C\Cn3cnc4c(Cl)nc(Cl)nc43)c2n1`, the GI50 in the assay on TK-10 renal is 3.83 µM; in the assay on HS 578T breast, 3.01 µM; with LOX IMVI melanoma it was 1.8 µM; in the assay on SNB-19 CNS, 3.13 µM; with A498 renal, 1.51 µM; in the assay with EKVX NSCLC it was 1.97 µM. In addition, the GI50 was 1.74 µM in the assay with HOP-62 NSCLC, 2.15 µM in the assay with M14 melanoma, 2.18 µM with RXF 393 renal and 3.01 µM in the assay with SN12C renal. The TGI stood at 13.5 µM in the assay on TK-10 renal; 6.12 µM in the assay with HS 578T breast; 3.48 µM with LOX IMVI melanoma; 10.1 µM with SNB-19 CNS; 3.23 µM in the assay with A498 renal; 3.76 µM in the assay on EKVX NSCLC. Besides, the TGI with HOP-62 NSCLC is 4.71 µM; with M14 melanoma, 4.19 µM; in the assay with RXF 393 renal it was 4.35 µM; in the assay with SN12C renal, 9.71 µM.
Take `S=C(Nc1ccccc1)c1ccccn1`: the GI50 is above 100 µM with TK-10 renal; above 100 µM with HS 578T breast; 28.2 µM with LOX IMVI melanoma; above 100 µM in the assay with SNB-19 CNS; above 100 µM in the assay with A498 renal; 42.9 µM in the assay on EKVX NSCLC. In addition, the GI50 in the assay with HOP-62 NSCLC is 81.9 µM; with M14 melanoma it was 28 µM; in the assay on RXF 393 renal, 40.3 µM; in the assay with SN12C renal it was 95.9 µM. Further, the TGI with TK-10 renal, in the assay with HS 578T breast, in the assay on LOX IMVI melanoma, with SNB-19 CNS, with A498 renal and in the assay on EKVX NSCLC was above 100 µM in each case. Further, the TGI in the assay on HOP-62 NSCLC was above 100 µM; with M14 melanoma, 97.1 µM; in the assay on RXF 393 renal it was above 100 µM; with SN12C renal it was above 100 µM.
As for `Nc1cc(N)c2nc(-c3ccccc3)c(Nc3ccc(F)cc3)nc2c1`, the GI50 is 17.3 µM with TK-10 renal; 19.1 µM in the assay with HS 578T breast; 4.81 µM with LOX IMVI melanoma; 22.1 µM in the assay on SNB-19 CNS; 17.4 µM in the assay on A498 renal; 12 µM in the assay with EKVX NSCLC. Also, the GI50 was 37.8 µM in the assay on HOP-62 NSCLC, 16.3 µM in the assay with M14 melanoma, 8.71 µM in the assay with RXF 393 renal and 15.6 µM with SN12C renal. The TGI came out at 35.6 µM in the assay on TK-10 renal; 58.8 µM with HS 578T breast; 18 µM in the assay on LOX IMVI melanoma; 40 µM with SNB-19 CNS; 33.8 µM in the assay on A498 renal; 30 µM in the assay on EKVX NSCLC. Further, the TGI in the assay on HOP-62 NSCLC is above 100 µM; in the assay with M14 melanoma it was 43.3 µM; with RXF 393 renal, 28.8 µM; in the assay with SN12C renal it was 33.9 µM.
Consider `CN(C)c1cccc2[nH]c(-c3[nH]ncc3Nc3ccnc(N)n3)nc12`, for which the GI50 in the assay with TK-10 renal was 0.0399 µM; with HS 578T breast, below 0.0156 µM; in the assay with LOX IMVI melanoma, below 0.01 µM; in the assay with SNB-19 CNS, 0.0152 µM; in the assay on A498 renal, 0.013 µM; in the assay with EKVX NSCLC, 0.0259 µM. For the same compound, the GI50 in the assay with HOP-62 NSCLC is 0.0273 µM; in the assay on M14 melanoma, 0.0222 µM; with RXF 393 renal it was below 0.01 µM; with SN12C renal, 0.0233 µM. The TGI came out at 1.01 µM with TK-10 renal; 0.261 µM in the assay on HS 578T breast; 0.14 µM with LOX IMVI melanoma; 1.77 µM in the assay on SNB-19 CNS; 0.037 µM with A498 renal; 0.998 µM with EKVX NSCLC. The TGI was 0.629 µM in the assay with HOP-62 NSCLC, 0.0812 µM with M14 melanoma, below 0.0168 µM in the assay with RXF 393 renal and 1.1 µM in the assay with SN12C renal.
Consider `Cn1cnc2c(F)c(Nc3ccc(Br)cc3Cl)c(C(=O)NOCCO)cc21`, for which the GI50 in the assay with TK-10 renal is 0.183 µM and 1.62 µM; in the assay with HS 578T breast, > 10 µM and 32.5 µM; in the assay on LOX IMVI melanoma, 1.26 µM and 1.45 µM; with SNB-19 CNS, > 10 µM and 40.4 µM; with A498 renal it was 0.103 µM and 0.16 µM; in the assay with EKVX NSCLC, 0.734 µM and 3.88 µM. Also, the GI50 in the assay on HOP-62 NSCLC is 0.399 µM and 0.232 µM; with M14 melanoma it was 0.0271 µM and < 0.0144 µM; with RXF 393 renal, 1.9 µM and 9.28 µM; in the assay with SN12C renal, > 10 µM and 47.6 µM. Further, the TGI in the assay with TK-10 renal was above 100 µM; in the assay on HS 578T breast, above 100 µM; with LOX IMVI melanoma, above 80.9 µM; in the assay on SNB-19 CNS it was above 100 µM; with A498 renal, 1.86 µM and 4.1 µM; in the assay on EKVX NSCLC it was above 100 µM. The TGI in the assay on HOP-62 NSCLC was above 100 µM; in the assay with M14 melanoma, > 6.91 µM and 4.53 µM; in the assay on RXF 393 renal, > 10 µM and 78 µM; in the assay on SN12C renal it was above 100 µM.
On to `CCOC(=O)C1CCC/C1=N\N=C(N)N` (centres undefined) (tested in a mixture with another compound), for which the TGI with TK-10 renal, in the assay with HS 578T breast, in the assay on LOX IMVI melanoma, in the assay on SNB-19 CNS, in the assay on A498 renal and in the assay on EKVX NSCLC was above 100 µM throughout. Moreover, the TGI in the assay on HOP-62 NSCLC, in the assay on M14 melanoma, in the assay on RXF 393 renal and in the assay on SN12C renal was above 100 µM in each case.
As for `COC(=O)c1c2c(c(C)[n+]([O-])c1C)C(=O)C=C(NCc1ccc(Cl)cc1)C2=O`, the GI50 with TK-10 renal is 2.95 µM; in the assay on HS 578T breast, 1.77 µM; with LOX IMVI melanoma it was 0.053 µM; in the assay on SNB-19 CNS, 1.16 µM; with A498 renal, 1.21 µM; in the assay with EKVX NSCLC it was 0.783 µM. Further, the GI50 in the assay on HOP-62 NSCLC is 1.15 µM; in the assay on M14 melanoma, 0.202 µM; in the assay with RXF 393 renal it was 1.22 µM; in the assay on SN12C renal it was 0.309 µM. For the same compound, the TGI amounted to 8.2 µM in the assay with TK-10 renal; 6.5 µM in the assay on HS 578T breast; 1.6 µM in the assay with LOX IMVI melanoma; 2.39 µM in the assay on SNB-19 CNS; 2.47 µM with A498 renal; 2.39 µM in the assay on EKVX NSCLC. The TGI with HOP-62 NSCLC worked out at 3.46 µM; in the assay with M14 melanoma it was 1.68 µM; with RXF 393 renal it was 2.53 µM; in the assay on SN12C renal, 1.24 µM.
Turning to `O=C(O)CC(Cc1ccc2c(c1)OCO2)C(=O)O` (centres undefined), the TGI in the assay with TK-10 renal, with HS 578T breast, in the assay on LOX IMVI melanoma, in the assay on SNB-19 CNS, in the assay on A498 renal and in the assay with EKVX NSCLC was above 100 µM each time. Further, the TGI with HOP-62 NSCLC, with M14 melanoma, with RXF 393 renal and in the assay with SN12C renal was above 100 µM each time.
For the compound `COc1ncnc2c(NC3OC(CO)C(O)C3O)ncnc12` (centres undefined), the TGI is 5.97 µM with TK-10 renal; 4.86 µM with HS 578T breast; 0.619 µM in the assay on LOX IMVI melanoma; 74 µM in the assay with SNB-19 CNS; 1.58 µM in the assay on A498 renal; above 49 µM with EKVX NSCLC. For the same compound, the TGI in the assay with HOP-62 NSCLC was found to be 18 µM; with M14 melanoma, 21.9 µM; with RXF 393 renal, 12.7 µM; in the assay with SN12C renal it was 10.6 µM.
In the case of `CC1(C)CCSC(/C=C/c2ccccc2)=N1`, the TGI with TK-10 renal was 32.6 µM; in the assay on HS 578T breast it was above 100 µM; in the assay on LOX IMVI melanoma, 27.8 µM; with SNB-19 CNS, 46 µM; in the assay with A498 renal, 36.4 µM; in the assay on EKVX NSCLC, 63.7 µM. In addition, the TGI in the assay on HOP-62 NSCLC stood at 32.8 µM; with M14 melanoma it was 27 µM; with RXF 393 renal it was 47.7 µM.
